# According to a melting point compilation (Tetko et al.; mined from patent text by program, amines drawn as free bases though some values may be those of a salt):
row,melting point [°C],Structure (SMILES)
1,87 to 89,CCOC(=O)CSc1nc2ccc(N)cc2s1
2,88.6 to 90.5,CCOC(=O)c1ccc(-c2ccc(OCCCCCCCCCCCCBr)cc2)cc1
3,158 to 159,COc1cc(OC)cc(C(=O)N2CCc3cc(OCc4ccccc4)ccc3C2=O)c1
4,201 to 202,CCOC(=O)c1cn(-c2nonc2C)c2c(F)c(F)c(F)cc2c1=O
5,74,O=C(c1ccccc1)c1ccc(OCC(O)COCCCCCCCCOCC(O)COc2ccc(C(=O)c3ccccc3)c(O)c2)cc1O (stereo unspecified)
6,135 to 137,CCCOc1cc2c(c3c(=O)c(-c4ccc(OC)cc4)cn(CCCN4CCOCC4)c13)CCC2
7,84,CCCOc1cc2c(cc1C(C)c1ccc(OC)cc1)OCO2 (stereo unspecified)
8,89 to 99,O=S(=O)(Nc1ccc2c(OCc3csc(-c4ccccc4)n3)cccc2c1)C(F)(F)F
9,195,Cn1c(CC(=O)NO)ccc1C(=O)c1ccc(Cl)cc1
10,162 to 163,O=C1OCCN1c1cc(-c2ccnc(Nc3cccc(Cl)c3)n2)ccn1
11,107 to 108,CCCN(CCC)C(=O)CNc1cc(C)nc(-c2ccccc2)n1
12,179 to 181,CCOC(C)=C(C#N)C(=O)Nc1ccccc1C
13,116 to 117,COC1=C(OC)C(=O)c2ccccc2C1=O
14,127 to 129,COc1cc(C(C#Cc2c(C)nc(N)nc2N)OC)cc(OC)c1OC (stereo unspecified)
15,82 to 83,CCOC(=O)Cc1nc(-c2ccccc2)oc1-c1cccs1
16,108 to 115,CCCc1c(O)ccc2c1OC(C)(CCC(N)=O)CC2=O (stereo unspecified)
17,190 to 192,O=C(O)c1cccc(-c2nc3cc(N4CCCC4=O)ccc3o2)c1
18,138 to 139,CCc1cc2c3ccccc3c(C=O)cc2c2ccccc12
19,212 to 216,CNC(=O)c1ccc(C=CC(=O)NCC(=O)N(C)c2ccc(Cl)c(CBr)c2Cl)cc1
20,178 to 180,Cc1cccc2c(C(=O)O)c(O)c(-c3ccc(-c4ccccc4)cc3)nc12
21,141,CCCc1nc(C)n2nc(S(=O)(=O)Cl)nc2c1Cc1ccc(-c2ccccc2C#N)cc1
22,166 to 168,CCCNC(=O)[C@H](Cc1ccccc1)NC(=O)CNC(=O)OC(C)(C)C

row,melting point [°C],Structure (SMILES)
1,207,Cc1c(Sc2ccccc2C(F)(F)F)c2cc(NS(C)(=O)=O)ccc2n1CC(=O)O
2,> 250,CCOCc1nc2c(N)nc3ccccc3c2n1CCC(N)=O
3,105 to 108,COC(=O)C[C@]1(C)C[C@@H](COc2ccc(-c3ccc(C#N)cc3)cc2)NC1=O
4,220 to 222,Cc1c(-c2ccc(O)cc2)sc(C#N)c1-c1cccc(O)c1
5,122,CC(=O)OC1CSC(Oc2ccc(-c3cccnc3)cc2F)C(OC(C)=O)C1OC(C)=O (stereo unspecified)
6,84.5 to 87,COC(=O)c1ccc(C(C)C(C)NCC(O)c2ccc(O)c(CO)c2)cc1 (stereo unspecified)
7,123 to 125,CC(C)c1cccc(C(C)C)c1NC(=O)CN1CCN(c2cccc(Sc3nc4ccccc4[nH]3)c2)CC1
8,223 to 224,COc1cc(OCCOc2ccccc2)cc2nc(-c3cc(C)nc(C)c3)[nH]c(=O)c12
9,236 to 238,Cc1nc(-c2ccccc2)nc(N2c3ccccc3CC2C(=O)N(C)c2ccc(Cl)cc2)c1C (stereo unspecified)
10,195 to 196,CCOC(=O)c1cnn(-c2ccc(OC)c(C#N)c2)c1N
11,249 to 251,COC1OCOc2cc3c4c(cccc4c21)C(=O)N(O)C3=O (stereo unspecified)
12,99 to 106,Cc1cc(CC=CCc2cc(C)c(O)c(C(C)(C)C)c2)cc(C(C)(C)C)c1O
13,120 to 122,CC1=C(C(=O)O)C(c2ccccc2[N+](=O)[O-])C(C(=O)O)=C(C)N1
14,217 to 218,COc1ccc(F)c(F)c1C(=O)c1cnc(NC2CCN(S(N)(=O)=O)CC2)nc1N
15,149 to 150,CC(C)(C)c1ccc(/C=C/C(=O)Nc2ccc3occc3c2)cc1
16,142,Cc1cc(Sc2cc(C)c(O)c(C)c2)cc(C)c1O
17,170 to 171,COc1ccc(N2CCN(c3c(C)c(C)c4c(c3C)C(c3ccc5ccccc5c3)C(C)(C)O4)CC2)cc1 (stereo unspecified)
18,243 to 245,COc1ccc(C2Sc3cc(Oc4ccc(Cl)cc4)ccc3NC(=O)C2O)cc1 (stereo unspecified)
19,81 to 84,CN(C(=O)OC(C)(C)C)c1cc(Oc2ccc(-c3nnn[nH]3)cc2)ccc1[N+](=O)[O-]
20,99.5 to 102,COc1ccc2cc(C(C)C(=O)OCCC3(C)CCc4c(C)c(O)c(C)c(C)c4O3)ccc2c1 (stereo unspecified)
21,219 to 220,CCOC(=O)CCC1(NC(=O)c2ccc(Cl)c(Cl)c2)C(=O)N(CC(=O)O)c2ccccc21 (stereo unspecified)

# The next lines start with the compound.
row,Structure (SMILES),melting point [°C]
1,N#CC1=C(c2ccccc2)Nc2ccccc2S1=O (stereo unspecified),182 to 184
2,COc1cc(OC)c(C(O)C(Cl)(Cl)Cl)cc1OC (stereo unspecified),162 to 164
3,CC(C)(C#N)Cc1ccccc1CC(C)(C)C#N,76 to 80
4,CCc1cc(Oc2ncc(C(F)(F)F)cc2Cl)n[nH]1,55 to 57
5,CN1C(=O)COc2cccc3nc4c(c1c23)CCCC4,176 to 178
6,CCOc1cccc2oc(-c3ccccc3)cc(=O)c12,111 to 113
7,C[C@@H](Nc1c(NCc2ccc(Cl)cc2Cl)c(=O)c1=O)C(C)(C)C,235 to 239
8,C=CCN1N=C(c2ccc(OC)c(OC)c2)[C@@H]2CCCC[C@@H]2C1=O (relative stereo),99 to 101
9,CCN=C(N)Nc1cnn(C(C)CCC(=N)NNC(C)=O)n1 (stereo unspecified),136 to 138
10,CCCc1ccc(S(=O)(=O)Nc2ccc3ncccc3c2)cc1,180 to 181
11,N#Cc1ccc2nc(Cl)c3ccccc3c(=O)c2c1,217 to 220
12,CCCCCCCCCCCCCCCCC(C(=O)OC(C)(C)C)C(=O)c1ccc(C(=O)OC(C)C)c(Cl)c1 (stereo unspecified),44
13,c1ccc(-c2nn[nH]c2-c2ccccc2)cc1,131
14,CC(C)(C)OC(=O)N[C@H]1CCN(C(=O)OCc2ccccc2)C1,124 to 125
15,Cc1ccnc(C(C#N)Sc2nc(N)cc(Cl)n2)c1 (stereo unspecified),145 to 146
16,O=[N+]([O-])c1ccc(O)c(Cl)c1Cl,148 to 150
17,CCC1c2cc(OC)c(OC)cc2C(c2ccc(OC)c(OC)c2)=NNC1C (stereo unspecified),120 to 122
18,C[C@@H]1CCNC[C@@H]1N(C)c1ncnc2[nH]ccc12,158
19,Cc1cccc(NC(=O)NC2N=C(C3CCCCC3)c3cccc(C)c3N(C)C2=O)c1 (stereo unspecified),196 to 198
20,Fc1cc2c(cc1F)CC(n1cc[nH]c1=S)C2,255 to 257

row,Structure (SMILES),melting point [°C]
1,COC(=O)c1nc(CN2CCOCC2)n(-c2ccc(Cl)cc2C(=O)c2ccccc2Cl)n1,141 to 143
2,CCCCCCNC(=O)CS(=O)(=O)Nc1c(C(C)C)cccc1C(C)C,125 to 127
3,C1=C[C@H]2CCN(CC3CC3)C[C@@H]2Cc2ccccc21 (relative stereo),157 to 159
4,CC(=C(C#N)C(=O)c1ccc(F)cc1)N(C)C,65 to 67
5,CCCCCCCCCCCCNC(=O)ON=C(C1=C(Br)C(=O)C(C)(C)O1)c1ccccc1,61.5 to 62.5
6,CCCCCCCCCCNC(=O)c1cccc([N+](=O)[O-])c1,86 to 88
7,Cn1nc(C(F)F)c(C=O)c1F,68
8,O=c1[nH]c2c(Cl)ccc(Cl)c2c(=O)n1CCCN1CC=C(c2ccc(Cl)cc2)CC1,207 to 209
9,CCCc1c(C(=O)C(C)C)c2ccc(C(=O)OC)cc2n1Cc1ccccc1C#N,159 to 161
10,N#CC(Cc1ccccn1)(c1ccccc1)c1ccccc1,116 to 117
11,Fc1ccc(Cn2c(NC3CCN(CCNc4nccs4)C3)nc3ccccc32)cc1 (stereo unspecified),127
12,OC(C=C(Cl)Cl)(Cn1cncn1)c1ccc(Cl)cc1 (stereo unspecified),95 to 99
13,CCCn1cc(C(=O)O)c(=O)c2cnc(N3CCN(C)CC3)nc21,254 to 257
14,O=c1ccc2c(-c3cccc(O)c3)nccc2[nH]1,297 to 299
15,O=C1COCC2=C1C(c1ccc(F)c(Br)c1)C1=C(CCS1(=O)=O)N2 (stereo unspecified),> 260
16,O=C(Cc1ccc(F)cc1)NC1CCN(Cc2ccc(Cl)c(Cl)c2)CC1,144 to 147
17,CC(=O)Nc1ccc(OCC(F)(F)F)cc1,140 to 141
18,Nc1c(Nc2ccon2)cnc2c1COCC2,209 to 211
19,Cc1cc(N2CCN(C(=O)OC(C)(C)C)CC2)ccc1[N+](=O)[O-],145 to 146
20,O=S(=O)(CC(F)(F)F)Oc1cccc(OS(=O)(=O)CC(F)(F)F)c1OS(=O)(=O)CC(F)(F)F,73.5 to 75

row,Structure (SMILES),melting point [°C]
1,Cc1cccc(NC(N)=S)c1N1CCOCC1,178 to 179
2,OCc1ccc(-c2ccc(-c3cn([C@H]4CN5CCC4CC5)nn3)o2)cc1,209
3,COC(=O)NC[C@H]1CN(c2ccc3c(c2)CCCc2cnoc2-3)C(=O)O1,166 to 168
4,CC(=O)SCC(Cc1ccccc1)C(=O)Nc1cccc(C(=O)NCC(=O)OCc2ccccc2)c1 (stereo unspecified),122 to 123
5,Clc1ccc(C2CCN(Cc3cncc(-c4ccccc4)c3)CC2)cc1,142 to 143
6,CC1=CC(=O)CC(C)(C)C1(O)C/C=C(C)/C=C\O (stereo unspecified),127 to 129
7,O=C(NC1CCCCCCC1)NC1CCCCC1,194
8,O=C1COc2ccc(N3C(=O)C4=C(CCCC4)C3=O)cc2N1CC1CCOCC1,187 to 189
9,Cc1cn(C2CC(O)C(C(O)I)O2)c(=O)[nH]c1=O (stereo unspecified),172 to 175
10,Clc1ccc(CNc2cccnc2)cc1,107 to 108
11,O=C(Nc1nc(C(F)(F)F)c(I)s1)c1cc(C(F)(F)F)cc(C(F)(F)F)c1,172 to 173
12,O=c1[nH]ncc(N2CCN(C34CC5CC(CC(C5)C3)C4)CC2)c1Cl,292 to 294
13,CCNc1ncnc(NCC)c1[N+](=O)[O-],80 to 81
14,CC(C)C(=O)Nc1cccc(N(CCO)CCO)c1,120 to 122
15,Clc1cccc(Nc2ncnc3[nH]nc(NCc4ccccc4)c23)c1,214 to 217
16,O=C(CCl)N[C@H]1CC[C@H](O)CC1,149 to 151
17,CC(C)(C)OC(=O)NN=C1CCN(C(=O)OC(C)(C)C)CC1,172 to 174
18,C=C(C)C1CCC2(C(=O)O)CCC3(C)C(CCC4C5(C)CCC(O)C(C)(C)C5CCC43C)C12 (stereo unspecified),291 to 292
